SMILES strings stand for the structures. Active and inactive are the calls of the source. No cut-off for these calls is given here. Positions of bridges follow the written chain, without caps; N, C: chain ends. Non-standard residues stand in square brackets, D forms with d. Residues, ends and D or L forms follow the SMILES beside them. Aic = NC1(C(=O)O)Cc2ccccc2C1

The record followed here is ChEMBL document CHEMBL1143690, “The effects of N-terminal part modification of arginine vasopressin analogues with 2-aminoindane-2-carboxylic acid: a highly potent V2 agonist” (J Med Chem, 2007).

The species entered for assay [1] is Rattus norvegicus. In words: Effect on arterial blood pressure in Wistar rat in pressor test. In kind it is functional, organism-based. To be noted: for Kb: Rattus norvegicus, Wistar, Arterial blood, read-out: pA2 (converted).
For assay [2], the species on record is Rattus norvegicus. In words: In vitro uterotonic activity in Wistar rat oxytocic uterus in absence of Mg2+. Type of assay: functional. The conditions noted are these: for Kb: read-out: pA2 (converted).
Assay [3] relates to Rattus norvegicus. The assay can be described thus: Antidiuretic activity in sc dosed conscious Wistar rat in an antidiuresis time of t1/2 200 mins relative to AVP. Type of assay: functional, Urine.
The test system of assay [4] is Rattus norvegicus. In words: Antidiuretic activity in sc dosed conscious Wistar rat in an antidiuresis time of t1/2 60 mins relative to AVP. In kind it is functional, Urine.
Assay [5] concerns Rattus norvegicus. In words: Antidiuretic activity in sc dosed conscious Wistar rat in an antidiuresis time of t1/2 200 mins relative to dDAVP. Type of assay: functional, Urine.
The test system of assay [6] is Rattus norvegicus. In words: Antidiuretic activity in sc dosed conscious Wistar rat in an antidiuresis time of t1/2 60 mins relative to dDAVP. Type of assay: functional, Urine.

On to `CC(C)[C@@H]1NC(=O)[C@H](Cc2ccccc2)NC(=O)C2(Cc3ccccc3C2)NC(=O)CCSSC[C@@H](C(=O)N2CCC[C@H]2C(=O)N[C@H](CCCN=C(N)N)C(=O)NCC(N)=O)NC(=O)[C@H](CC(N)=O)NC1=O` [listing 1 of 2 here], for which the Kb in the assay listed under Rattus norvegicus [1] is 562 nM; in the assay listed under Rattus norvegicus [2], 8.71 nM.

Regarding `NC(=O)CC[C@@H]1NC(=O)[C@H](Cc2ccccc2)NC(=O)C2(Cc3ccccc3C2)NC(=O)CCSSC[C@@H](C(=O)N2CCC[C@H]2C(=O)N[C@@H](CCCN=C(N)N)C(=O)NCC(N)=O)NC(=O)[C@H](CC(N)=O)NC1=O` [listing 1 of 2 here], the Activity in the assay listed under Rattus norvegicus [1] turned out to be 5.3 IU/mg; with Rattus norvegicus [3] it was 45000 IU/mg; with Rattus norvegicus [4], 450 IU/mg; in the assay on Rattus norvegicus [5], 10%; with Rattus norvegicus [6], 10%.

For `NC(=O)CC[C@@H]1NC(=O)C2(Cc3ccccc3C2)NC(=O)[C@H](Cc2ccc(O)cc2)NC(=O)[C@H](N)CSSC[C@H](C(=O)N2CCC[C@H]2C(=O)N[C@H](CCCN=C(N)N)C(=O)NCC(N)=O)NC(=O)[C@H](CC(N)=O)NC1=O`, the outcome in the assay listed under Rattus norvegicus [1], with Rattus norvegicus [3] (Urine), with Rattus norvegicus [4] (Urine), in the assay with Rattus norvegicus [5] (Urine), in the assay listed under Rattus norvegicus [2] and in the assay with Rattus norvegicus [6] (Urine) was inactive.

Turning to `CC(C)[C@@H]1NC(=O)[C@H](Cc2ccccc2)NC(=O)C2(CCCCC2)NC(=O)CCSSC[C@@H](C(=O)N2CCC[C@H]2C(=O)N[C@H](CCCN=C(N)N)C(=O)NCC(N)=O)NC(=O)[C@H](CC(N)=O)NC1=O`, the Kb in the assay listed under Rattus norvegicus [1] was 724 nM; in the assay filed under Rattus norvegicus [2], 15.5 nM. Besides, the Activity was 50000 IU/mg in the assay with Rattus norvegicus [3], 4500 IU/mg with Rattus norvegicus [4], 10% in the assay on Rattus norvegicus [5] and 50% in the assay on Rattus norvegicus [6].

`CC(C)[C@@H]1NC(=O)[C@H](Cc2ccccc2)NC(=O)C2(Cc3ccccc3C2)NC(=O)[C@@H](N)CSSC[C@@H](C(=O)N2CCC[C@H]2C(=O)N[C@@H](CCCN=C(N)N)C(=O)NCC(N)=O)NC(=O)[C@H](CC(N)=O)NC1=O` (H-C[Aic]FVNCPRG-NH2; disulfide 1-6) [listing 1 of 2 here]: the Activity in the assay filed under Rattus norvegicus [1] worked out at 0 IU/mg; in the assay with Rattus norvegicus [3] it was 45000 IU/mg; in the assay with Rattus norvegicus [4], 450 IU/mg; with Rattus norvegicus [5], 10%; in the assay with Rattus norvegicus [6], 10%.

As to `NC(=O)CC[C@@H]1NC(=O)[C@H](Cc2ccccc2)NC(=O)C2(Cc3ccccc3C2)NC(=O)CCSSC[C@@H](C(=O)N2CCC[C@H]2C(=O)N[C@H](CCCN=C(N)N)C(=O)NCC(N)=O)NC(=O)[C@H](CC(N)=O)NC1=O` [listing 1 of 2 here], the Kb in the assay listed under Rattus norvegicus [1] is 2510 nM; in the assay filed under Rattus norvegicus [2] it was 49 nM.

In the case of `CC(C)[C@@H]1NC(=O)[C@H](Cc2ccccc2)NC(=O)C2(Cc3ccccc3C2)NC(=O)[C@@H](N)CSSC[C@@H](C(=O)N2CCC[C@H]2C(=O)N[C@@H](CCCN=C(N)N)C(=O)NCC(N)=O)NC(=O)[C@H](CC(N)=O)NC1=O` (H-C[Aic]FVNCPRG-NH2; disulfide 1-6) [listing 2 of 2 here], in the assay filed under Rattus norvegicus [2], the Kb is 11.7 nM.

In the case of `NC(=O)CC[C@@H]1NC(=O)[C@H](Cc2ccccc2)NC(=O)C2(Cc3ccccc3C2)NC(=O)[C@@H](N)CSSC[C@@H](C(=O)N2CCC[C@H]2C(=O)N[C@H](CCCN=C(N)N)C(=O)NCC(N)=O)NC(=O)[C@H](CC(N)=O)NC1=O` [listing 1 of 2 here], the Kb in the assay listed under Rattus norvegicus [2] is 138 nM.

As to `NC(=O)CC[C@@H]1NC(=O)[C@H](Cc2ccccc2)NC(=O)C2(Cc3ccccc3C2)NC(=O)[C@@H](N)CSSC[C@@H](C(=O)N2CCC[C@H]2C(=O)N[C@@H](CCCN=C(N)N)C(=O)NCC(N)=O)NC(=O)[C@H](CC(N)=O)NC1=O` [listing 1 of 2 here], the Activity in the assay listed under Rattus norvegicus [1] was found to be 9.4 IU/mg; in the assay with Rattus norvegicus [3], 45000 IU/mg; in the assay with Rattus norvegicus [4] it was 450 IU/mg; in the assay on Rattus norvegicus [5] it was 10%; in the assay with Rattus norvegicus [6], 10%.

For `NC(=O)CC[C@@H]1NC(=O)[C@H](Cc2ccccc2)NC(=O)C2(Cc3ccccc3C2)NC(=O)CCSSC[C@@H](C(=O)N2CCC[C@H]2C(=O)N[C@H](CCCN=C(N)N)C(=O)NCC(N)=O)NC(=O)[C@H](CC(N)=O)NC1=O` [listing 2 of 2 here], the Activity in the assay with Rattus norvegicus [3] is listed as 45000 IU/mg; with Rattus norvegicus [4] it was 450 IU/mg; with Rattus norvegicus [5], 10%; with Rattus norvegicus [6], 10%.

Turning to `NC(=O)CC[C@@H]1NC(=O)C2(Cc3ccccc3C2)NC(=O)[C@H](Cc2ccc(O)cc2)NC(=O)[C@H](N)CSSC[C@H](C(=O)N2CCC[C@H]2C(=O)N[C@@H](CCCN=C(N)N)C(=O)NCC(N)=O)NC(=O)[C@H](CC(N)=O)NC1=O`, the outcome in the assay listed under Rattus norvegicus [1], with Rattus norvegicus [3] (Urine), in the assay with Rattus norvegicus [4] (Urine), with Rattus norvegicus [5] (Urine), in the assay filed under Rattus norvegicus [2] and in the assay on Rattus norvegicus [6] (Urine) was inactive.

On to `NC(=O)CC[C@@H]1NC(=O)[C@H](Cc2ccccc2)NC(=O)C2(Cc3ccccc3C2)NC(=O)[C@@H](N)CSSC[C@@H](C(=O)N2CCC[C@H]2C(=O)N[C@@H](CCCN=C(N)N)C(=O)NCC(N)=O)NC(=O)[C@H](CC(N)=O)NC1=O` [listing 2 of 2 here], for which the Kb in the assay listed under Rattus norvegicus [2] was 53.7 nM.

In the case of `NC(=O)CC[C@@H]1NC(=O)[C@H](Cc2ccccc2)NC(=O)C2(Cc3ccccc3C2)NC(=O)CCSSC[C@@H](C(=O)N2CCC[C@H]2C(=O)N[C@@H](CCCN=C(N)N)C(=O)NCC(N)=O)NC(=O)[C@H](CC(N)=O)NC1=O` [listing 2 of 2 here], the Kb in the assay filed under Rattus norvegicus [2] is 31.6 nM.

In the case of `NC(=O)CC[C@@H]1NC(=O)C2(Cc3ccccc3C2)NC(=O)[C@H](Cc2ccc(O)cc2)NC(=O)CCSSC[C@H](C(=O)N2CCC[C@H]2C(=O)N[C@@H](CCCN=C(N)N)C(=O)NCC(N)=O)NC(=O)[C@H](CC(N)=O)NC1=O`, the result in the assay listed under Rattus norvegicus [1], in the assay with Rattus norvegicus [3] (Urine), with Rattus norvegicus [4] (Urine), in the assay on Rattus norvegicus [5] (Urine), in the assay filed under Rattus norvegicus [2] and in the assay with Rattus norvegicus [6] (Urine) was inactive.

As for `CC(C)[C@@H]1NC(=O)[C@H](Cc2ccccc2)NC(=O)C2(Cc3ccccc3C2)NC(=O)CCSSC[C@@H](C(=O)N2CCC[C@H]2C(=O)N[C@H](CCCN=C(N)N)C(=O)NCC(N)=O)NC(=O)[C@H](CC(N)=O)NC1=O` [listing 2 of 2 here], the Activity in the assay with Rattus norvegicus [3] is 450000 IU/mg; in the assay with Rattus norvegicus [4], 4500 IU/mg; in the assay with Rattus norvegicus [5] it was 100%; in the assay with Rattus norvegicus [6] it was 50%.

For `NC(=O)CC[C@@H]1NC(=O)[C@H](Cc2ccccc2)NC(=O)C2(Cc3ccccc3C2)NC(=O)[C@@H](N)CSSC[C@@H](C(=O)N2CCC[C@H]2C(=O)N[C@H](CCCN=C(N)N)C(=O)NCC(N)=O)NC(=O)[C@H](CC(N)=O)NC1=O` [listing 2 of 2 here], the Activity worked out at 0 IU/mg in the assay filed under Rattus norvegicus [1]; 4500 IU/mg in the assay with Rattus norvegicus [3]; 45 IU/mg in the assay on Rattus norvegicus [4]; 1% in the assay on Rattus norvegicus [5]; 1% in the assay with Rattus norvegicus [6].
